# From ChEMBL document CHEMBL1201862, “PubChem BioAssay data set” (2004)
# The source made the active and inactive calls.
# Key:
# CAAX prenyl protease 1 = CAAX prenyl protease 1 (Saccharomyces cerevisiae S288c, UniProt P47154); assay: Ste24 protease inhibitors, dose response, biochemical, S. cerevisiae, plate reader, cherry-pick (AID 488815)
# [1] = inhibitors of intracellular T. cruzi replication, confirmation, NIH3T3 host cells, beta-gal luminescence (AID 2044); format: functional, cell-based;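 note: intracellular parasites grown in NIH/3T3 mouse fibroblasts as host cells; luminescent beta-galactosidase reporter signal from transgenic T. cruzi replicating inside host cells; inhibitors lower the luminescence signal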
# [2] = cytotoxicity toward NIH3T3 fibroblasts, dose response, counter-screen, cell-based, ATP luminescence, mouse fibroblasts (AID 2010); format: functional;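 note: cells exposed to compound for about 90 hours before reading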
# [3] = THP-1 cell cytotoxicity, dose response, cytotoxicity control for non-replicating M. tuberculosis project (AID 489025); format: functional
# [4] = HepG2 cell cytotoxicity, dose response, cytotoxicity control for non-replicating M. tuberculosis project (AID 489018); format: functional; settings: Mycobacterium tuberculosis
# [5] = Vero E6 cell cytotoxicity, dose response, cytotoxicity control for non-replicating M. tuberculosis project, secondary assay (AID 492998); format: functional, VeroE6; settings: Vero C1008
# cells = format: functional
# [6] = target: T1, E3 ubiquitin-protein ligase XIAP (Homo sapiens, UniProt P98170); assay: Counter Screen using XIAP-Bir3 for Chemical Antagonists of Bir1/2 domains of IAP-family anti-apoptotic proteins. [Related pubchem assays (depositor defined):AID1018, AID1449, AID1514, AID1638, AID1749, AID1750, AID488957, AID488963]
# [7] = target: T1, E3 ubiquitin-protein ligase XIAP; assay: XIAP antagonists, biochemical, IAP family, fluorescence polarization (AID 1018); format: functional
# [8] = growth suppression of PTEN-null colon cells, dose response, cell-based, HCT116 PTEN knockout (AID 1047); format: functional;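 note: HCT116 colon tumor cells with PTEN knocked out; cells exposed to compound for 60 hours before readout; potency for loss of cell viability measured by luminescence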
# [9] = growth suppression of beta-catenin-knockout colon cells, dose response, cell-based, HCT116, human colon tumor (AID 1045); format: functional;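 note: HCT116 colon tumor cells with beta catenin knocked out; cells exposed to compound for 60 hours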
# [10] = target: Induced myeloid leukemia cell differentiation protein Mcl-1 (Homo sapiens, UniProt Q07820); format: functional
# [11] = target: Glucose-6-phosphate 1-dehydrogenase (Homo sapiens, UniProt P11413); assay: human G6PD enzyme inhibitors, dose response, selectivity assay for P. falciparum G6PD inhibitor project, biochemical, fluorescence (AID 504792); format: functional
# [12] = Luminescence Cell-Based Dose Retest to Confirm Inhibitors of Cancer Stem Cells. [Related pubchem assays (depositor defined):AID2717, AID2721]; format: functional; settings: Homo sapiens
# Beta-galactosidase = Beta-galactosidase (Escherichia coli, UniProt Q8VNN2); assay: beta-galactosidase enzyme inhibitors and activators, dose response, artefact control for CCR6 antagonist project, biochemical, E. coli enzyme, set 3 (AID 504712); format: functional
# [13] = target: DNA dC->dU-editing enzyme APOBEC-3G (Homo sapiens, UniProt Q9HC16); assay: Dose Response confirmation of small molecule APOBEC3G DNA Deaminase Inhibitors via a fluorescence-based single-stranded DNA deaminase assay. [Related pubchem assays (depositor defined):AID493012, AID493028]; format: functional
# [14] = target: Heat shock protein HSP 90-alpha (Homo sapiens, UniProt P07900); format: functional, organism-based
# [15] = Shn3 3'UTR reporter inhibitors, dose response, cell-based, Clone20 osteoblasts, firefly luciferase, cherry-picked (AID 624132); format: functional;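 note: firefly luciferase luminescence from reporter carrying the Shn3 3'UTR in osteoblasts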
# [16] = HepG2 cell cytotoxicity, dose response, cytotoxicity control for Shn3 inhibitor project, CellTiter-Glo, cherry-picked (AID 624134); format: functional, cell-based
# [17] = control 3'UTR Renilla luciferase suppression, dose response, counter-screen for Shn3 inhibitor project, cell-based, Clone20-Shn3RL, cherry-picked (AID 624133); format: functional
# [18] = reduction of Shn3 3'UTR firefly luciferase signal, dose response, Schnurri-3 inhibitor project, cell-based, Clone20 osteoblasts, cherry-pick, set 2 (AID 720490); format: functional;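 note: actives lower the luminescence signal as inhibitors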
# [19] = inhibitors of control Renilla luciferase reporter, dose response, counter-screen for Shn3 3'UTR targeting project, Clone20-Shn3RL cells, dual-Glo, cherry-pick, set 2 (AID 720724); format: functional, cell-based; settings: Dual-Go Shn3RL
# Troponin, cardiac muscle = Troponin, cardiac muscle (Homo sapiens, UniProt P19429+P45379+P63316); assay: Fluorescence-based biochemical high throughput dose response assay for activators of the calcium sensitivity of cardiac Regulated Thin Filaments (RTF). [Related pubchem assays (depositor defined):AID493008, AID493018, AID504382, AID504383]; format: protein-complex assay
# Hexokinase HKDC1 = target: T2, Hexokinase HKDC1 (Homo sapiens, UniProt Q2TB90); assay: HKDC1 hexokinase activators, dose response, biochemical, W721R variant (AID 504730); format: functional
# T2 sequence (Q2TB90 whole entry): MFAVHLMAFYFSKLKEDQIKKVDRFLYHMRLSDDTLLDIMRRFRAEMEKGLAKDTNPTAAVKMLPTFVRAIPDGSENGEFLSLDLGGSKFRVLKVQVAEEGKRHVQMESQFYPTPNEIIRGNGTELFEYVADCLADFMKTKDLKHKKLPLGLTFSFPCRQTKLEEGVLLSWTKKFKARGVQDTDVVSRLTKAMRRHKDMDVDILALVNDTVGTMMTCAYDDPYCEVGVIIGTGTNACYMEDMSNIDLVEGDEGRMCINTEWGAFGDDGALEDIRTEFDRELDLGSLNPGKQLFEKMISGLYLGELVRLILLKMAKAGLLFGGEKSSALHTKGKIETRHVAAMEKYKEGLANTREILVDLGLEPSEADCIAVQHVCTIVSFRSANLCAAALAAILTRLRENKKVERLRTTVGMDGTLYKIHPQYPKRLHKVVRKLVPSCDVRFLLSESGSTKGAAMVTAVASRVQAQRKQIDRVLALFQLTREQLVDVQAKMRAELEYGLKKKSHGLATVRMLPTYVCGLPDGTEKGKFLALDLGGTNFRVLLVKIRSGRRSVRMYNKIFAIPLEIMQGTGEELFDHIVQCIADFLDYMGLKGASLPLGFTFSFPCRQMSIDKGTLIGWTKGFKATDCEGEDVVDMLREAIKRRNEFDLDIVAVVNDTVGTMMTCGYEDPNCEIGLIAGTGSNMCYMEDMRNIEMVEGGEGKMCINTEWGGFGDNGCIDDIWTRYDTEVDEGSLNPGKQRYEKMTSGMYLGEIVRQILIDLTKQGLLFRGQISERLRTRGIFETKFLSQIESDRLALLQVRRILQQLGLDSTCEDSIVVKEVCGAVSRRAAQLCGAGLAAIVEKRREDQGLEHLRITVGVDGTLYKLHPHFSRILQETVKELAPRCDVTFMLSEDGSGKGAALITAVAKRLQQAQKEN
# Hexokinase-1 = Hexokinase-1 (Homo sapiens, UniProt P19367); assay: hexokinase 1 activators, dose response, selectivity assay for HKDC1 activator project, biochemical (AID 504762); format: functional
# [20] = target: T3, Mannose-6-phosphate isomerase (Homo sapiens, UniProt P34949); assay: PMI enzyme inhibitors, confirmation, biochemical, fluorescence intensity (AID 1535)
# T3 sequence (P34949 whole entry): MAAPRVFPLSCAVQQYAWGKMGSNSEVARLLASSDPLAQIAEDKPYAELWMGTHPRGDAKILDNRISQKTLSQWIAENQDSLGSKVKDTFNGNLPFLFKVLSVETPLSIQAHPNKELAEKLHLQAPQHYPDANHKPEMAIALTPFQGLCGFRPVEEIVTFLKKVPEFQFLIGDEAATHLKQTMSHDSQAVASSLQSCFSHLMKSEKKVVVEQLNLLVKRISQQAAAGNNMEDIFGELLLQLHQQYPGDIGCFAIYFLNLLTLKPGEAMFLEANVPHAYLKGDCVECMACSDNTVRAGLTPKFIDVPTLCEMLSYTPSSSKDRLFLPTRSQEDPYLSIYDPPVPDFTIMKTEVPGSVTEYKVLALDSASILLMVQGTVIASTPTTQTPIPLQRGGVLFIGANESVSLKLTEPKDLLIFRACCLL
# Phosphomannomutase 2 = Phosphomannomutase 2 (Homo sapiens, UniProt O15305); assay: Counter screen SAR assay for PMM2 inhibitors via a fluorescence intensity assay. [Related pubchem assays (depositor defined):AID1545, AID1574]
# [21] = target: T4, Rac GTPase-activating protein 1 (Homo sapiens, UniProt Q9H0H5); assay: MgcRacGAP GTPase-activating activity inhibitors, confirmation, biochemical, ADP Hunter fluorescence, primary and confirmatory (AID 624330); format: functional
# T4 sequence (Q9H0H5 whole entry): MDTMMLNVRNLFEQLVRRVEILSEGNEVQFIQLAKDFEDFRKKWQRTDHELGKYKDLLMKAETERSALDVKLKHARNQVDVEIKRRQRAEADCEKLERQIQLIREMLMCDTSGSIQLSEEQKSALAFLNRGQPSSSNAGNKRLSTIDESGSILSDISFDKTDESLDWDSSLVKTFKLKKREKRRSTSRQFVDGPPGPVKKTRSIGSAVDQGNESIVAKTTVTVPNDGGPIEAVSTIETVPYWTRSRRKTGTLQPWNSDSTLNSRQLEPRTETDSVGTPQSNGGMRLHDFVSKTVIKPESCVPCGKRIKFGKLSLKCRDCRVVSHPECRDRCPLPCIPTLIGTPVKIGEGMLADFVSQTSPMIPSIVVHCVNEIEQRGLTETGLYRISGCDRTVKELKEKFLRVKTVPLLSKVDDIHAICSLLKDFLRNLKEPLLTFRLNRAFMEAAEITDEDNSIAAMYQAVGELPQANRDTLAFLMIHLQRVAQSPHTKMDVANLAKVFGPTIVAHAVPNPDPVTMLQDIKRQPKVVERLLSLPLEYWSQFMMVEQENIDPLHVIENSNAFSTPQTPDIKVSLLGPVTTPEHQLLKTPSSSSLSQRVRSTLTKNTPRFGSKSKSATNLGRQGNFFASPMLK
# [22] = target: G-protein coupled receptor 55 (Homo sapiens, UniProt Q9Y2T6); assay: GPR55 antagonists blocking LPI-driven arrestin recruitment, primary screen, imaging, U2OS, beta-arrestin-GFP, LPI agonist (AID 2013); format: functional;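 note: antagonist potency measured as reduced agonist-driven arrestin aggregation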
# Large T antigen = Large T antigen (Simian virus 40, UniProt P03070); format: functional, Betapolyomavirus macacae;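 note: Confirmatory-stage PubChem screen for compounds that inhibit SV40 T antigen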
# [23] = target: FAD-linked sulfhydryl oxidase ALR (Homo sapiens, UniProt P55789); assay: inhibitors of human ALR sulfhydryl oxidase, dose response, biochemical, H2O2 detection, luminescence, cherry-pick (AID 493248)
# [24] = target: T5, Polyadenylate-binding protein 1 (Homo sapiens, UniProt P11940); assay: PABP1 MLLE–PAM2 interaction inhibitors, dose response, miRNA deadenylation inhibitor project, biochemical, fluorescence polarization, Cy5-PAM2 peptide, secondary (AID 602260); format: functional; settings: read-out: IC50_Mean
# [25] = target: T5, Polyadenylate-binding protein 1; assay: PABP1 MLLE–PAM2 binding inhibitor potency, dose response, biochemical, fluorescence polarization, FITC-PAM2 peptide (AID 602259); format: functional; settings: read-out: IC50_Mean
# HEK293 = assay: inhibitors of LMP1-driven NF-kB reporter, dose response, cell-based, HEK293, luciferase, cherry-pick (AID 588343); format: functional; settings: Homo sapiens
# H9c2 = assay: cells; format: functional, cell-based; settings: Rattus norvegicus, H9c2, Myocardium;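 note: confirmatory concentration-response retest of ultra-high-throughput screening hits for modulation of myocardial damage; cell death induced by hydrogen peroxide oxidative stress; compound pretreatment for 60 min then peroxide exposure for 2 h; potency is for protecting the cells against peroxide damage rather than for killing them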
# T1 sequence (P98170 whole entry): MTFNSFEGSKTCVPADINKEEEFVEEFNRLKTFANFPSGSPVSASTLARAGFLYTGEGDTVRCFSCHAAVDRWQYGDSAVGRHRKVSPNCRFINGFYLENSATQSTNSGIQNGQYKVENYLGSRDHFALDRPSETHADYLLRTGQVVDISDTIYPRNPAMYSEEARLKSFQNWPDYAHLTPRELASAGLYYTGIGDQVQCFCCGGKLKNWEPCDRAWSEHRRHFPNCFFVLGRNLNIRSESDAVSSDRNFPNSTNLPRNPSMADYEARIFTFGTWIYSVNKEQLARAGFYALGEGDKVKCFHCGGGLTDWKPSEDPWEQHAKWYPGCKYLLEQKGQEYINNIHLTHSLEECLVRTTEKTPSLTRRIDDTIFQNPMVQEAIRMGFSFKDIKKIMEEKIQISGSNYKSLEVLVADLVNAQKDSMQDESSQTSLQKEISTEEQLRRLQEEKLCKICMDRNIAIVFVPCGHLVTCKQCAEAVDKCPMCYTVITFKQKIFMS
# Sequence of G-protein coupled receptor 55 (Q9Y2T6 whole entry): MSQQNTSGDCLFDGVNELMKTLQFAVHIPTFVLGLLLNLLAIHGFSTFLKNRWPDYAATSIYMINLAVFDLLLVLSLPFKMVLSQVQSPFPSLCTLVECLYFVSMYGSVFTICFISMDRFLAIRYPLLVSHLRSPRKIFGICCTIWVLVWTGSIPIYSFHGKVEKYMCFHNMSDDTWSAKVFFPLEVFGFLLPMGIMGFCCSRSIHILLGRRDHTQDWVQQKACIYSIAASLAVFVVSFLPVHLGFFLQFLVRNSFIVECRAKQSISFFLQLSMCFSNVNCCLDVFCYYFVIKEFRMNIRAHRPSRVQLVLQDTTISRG
# Sequence of DNA dC->dU-editing enzyme APOBEC-3G (Q9HC16 whole entry): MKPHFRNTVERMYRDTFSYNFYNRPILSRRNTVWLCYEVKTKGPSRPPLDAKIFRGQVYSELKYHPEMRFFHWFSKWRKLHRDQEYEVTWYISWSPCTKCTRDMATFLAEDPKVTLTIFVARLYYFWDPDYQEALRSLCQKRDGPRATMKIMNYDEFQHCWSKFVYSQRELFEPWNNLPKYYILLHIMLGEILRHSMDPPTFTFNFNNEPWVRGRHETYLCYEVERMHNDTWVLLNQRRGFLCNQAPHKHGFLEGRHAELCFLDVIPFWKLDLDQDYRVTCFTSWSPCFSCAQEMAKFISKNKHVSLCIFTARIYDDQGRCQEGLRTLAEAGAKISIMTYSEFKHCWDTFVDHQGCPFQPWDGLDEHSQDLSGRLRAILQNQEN
# T5 sequence (P11940 whole entry): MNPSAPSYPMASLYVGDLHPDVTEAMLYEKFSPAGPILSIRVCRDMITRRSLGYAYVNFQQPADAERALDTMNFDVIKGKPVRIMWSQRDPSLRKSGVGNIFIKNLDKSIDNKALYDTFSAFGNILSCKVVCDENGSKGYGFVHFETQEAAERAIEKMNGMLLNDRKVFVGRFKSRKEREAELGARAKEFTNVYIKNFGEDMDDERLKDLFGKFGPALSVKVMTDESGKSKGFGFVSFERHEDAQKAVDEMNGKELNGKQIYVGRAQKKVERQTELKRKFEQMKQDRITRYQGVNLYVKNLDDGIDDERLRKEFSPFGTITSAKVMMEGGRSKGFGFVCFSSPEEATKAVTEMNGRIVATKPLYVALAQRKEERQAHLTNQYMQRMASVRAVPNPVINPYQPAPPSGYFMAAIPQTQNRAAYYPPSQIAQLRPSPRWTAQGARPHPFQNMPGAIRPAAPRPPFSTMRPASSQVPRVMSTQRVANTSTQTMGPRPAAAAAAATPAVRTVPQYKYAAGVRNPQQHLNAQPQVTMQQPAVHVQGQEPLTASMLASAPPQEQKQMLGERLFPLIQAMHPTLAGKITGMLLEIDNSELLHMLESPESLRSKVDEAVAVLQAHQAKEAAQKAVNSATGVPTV
# Sequence of Beta-galactosidase (Q8VNN2 whole entry): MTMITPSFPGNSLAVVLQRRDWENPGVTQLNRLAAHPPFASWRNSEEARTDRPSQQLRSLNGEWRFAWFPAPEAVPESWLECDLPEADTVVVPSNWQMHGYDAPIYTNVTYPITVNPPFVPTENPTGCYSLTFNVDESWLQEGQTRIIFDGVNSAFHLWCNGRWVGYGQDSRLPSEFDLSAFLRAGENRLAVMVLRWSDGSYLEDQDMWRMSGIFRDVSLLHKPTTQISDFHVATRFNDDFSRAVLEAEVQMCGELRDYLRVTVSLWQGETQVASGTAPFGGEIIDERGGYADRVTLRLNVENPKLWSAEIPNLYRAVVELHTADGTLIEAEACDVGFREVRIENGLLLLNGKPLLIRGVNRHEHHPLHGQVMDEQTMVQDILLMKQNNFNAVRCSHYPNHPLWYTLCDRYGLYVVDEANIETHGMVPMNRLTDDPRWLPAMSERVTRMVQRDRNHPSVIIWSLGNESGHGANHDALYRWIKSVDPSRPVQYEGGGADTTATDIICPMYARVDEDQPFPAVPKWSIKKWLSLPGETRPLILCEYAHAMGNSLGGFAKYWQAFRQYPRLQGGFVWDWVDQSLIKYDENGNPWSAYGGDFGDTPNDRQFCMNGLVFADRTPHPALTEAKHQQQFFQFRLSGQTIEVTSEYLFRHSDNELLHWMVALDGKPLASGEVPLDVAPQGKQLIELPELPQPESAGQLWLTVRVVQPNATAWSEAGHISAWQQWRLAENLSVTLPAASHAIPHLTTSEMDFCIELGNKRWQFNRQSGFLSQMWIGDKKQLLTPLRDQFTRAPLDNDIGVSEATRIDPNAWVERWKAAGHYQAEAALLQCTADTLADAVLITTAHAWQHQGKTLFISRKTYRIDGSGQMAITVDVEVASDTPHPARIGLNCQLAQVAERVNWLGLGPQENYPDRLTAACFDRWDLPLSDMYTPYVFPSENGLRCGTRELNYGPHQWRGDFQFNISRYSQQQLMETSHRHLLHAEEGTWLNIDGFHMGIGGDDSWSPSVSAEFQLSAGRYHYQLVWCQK
# Sequence of Induced myeloid leukemia cell differentiation protein Mcl-1 (Q07820 whole entry): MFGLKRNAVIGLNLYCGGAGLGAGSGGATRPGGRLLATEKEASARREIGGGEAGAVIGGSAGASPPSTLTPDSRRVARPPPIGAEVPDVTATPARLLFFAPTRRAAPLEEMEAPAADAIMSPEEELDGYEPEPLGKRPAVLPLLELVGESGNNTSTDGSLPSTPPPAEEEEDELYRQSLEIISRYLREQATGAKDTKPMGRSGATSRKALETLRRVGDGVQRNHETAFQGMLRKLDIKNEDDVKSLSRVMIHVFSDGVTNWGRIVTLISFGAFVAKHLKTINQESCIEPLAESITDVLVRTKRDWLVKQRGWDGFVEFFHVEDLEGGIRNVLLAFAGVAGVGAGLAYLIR
# Sequence of Large T antigen (P03070 whole entry): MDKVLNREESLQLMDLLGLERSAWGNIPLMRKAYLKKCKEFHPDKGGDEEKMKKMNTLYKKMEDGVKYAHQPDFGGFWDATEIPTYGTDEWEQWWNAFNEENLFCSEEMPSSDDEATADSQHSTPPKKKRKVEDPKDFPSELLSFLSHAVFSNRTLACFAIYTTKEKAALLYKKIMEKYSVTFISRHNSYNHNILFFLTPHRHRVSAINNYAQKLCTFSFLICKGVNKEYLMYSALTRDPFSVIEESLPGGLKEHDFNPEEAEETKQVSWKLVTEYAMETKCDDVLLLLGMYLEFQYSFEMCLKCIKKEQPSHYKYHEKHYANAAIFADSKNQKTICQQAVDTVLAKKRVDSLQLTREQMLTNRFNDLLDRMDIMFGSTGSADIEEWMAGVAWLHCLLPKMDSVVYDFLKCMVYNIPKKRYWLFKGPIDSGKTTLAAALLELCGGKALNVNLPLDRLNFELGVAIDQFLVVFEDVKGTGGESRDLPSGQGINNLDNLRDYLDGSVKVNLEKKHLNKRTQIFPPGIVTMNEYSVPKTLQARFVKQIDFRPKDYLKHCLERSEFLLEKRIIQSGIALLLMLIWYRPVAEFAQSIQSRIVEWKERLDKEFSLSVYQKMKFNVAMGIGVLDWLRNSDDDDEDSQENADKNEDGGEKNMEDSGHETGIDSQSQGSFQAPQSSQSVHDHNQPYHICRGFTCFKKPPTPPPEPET
# Sequence of Glucose-6-phosphate 1-dehydrogenase (P11413 whole entry): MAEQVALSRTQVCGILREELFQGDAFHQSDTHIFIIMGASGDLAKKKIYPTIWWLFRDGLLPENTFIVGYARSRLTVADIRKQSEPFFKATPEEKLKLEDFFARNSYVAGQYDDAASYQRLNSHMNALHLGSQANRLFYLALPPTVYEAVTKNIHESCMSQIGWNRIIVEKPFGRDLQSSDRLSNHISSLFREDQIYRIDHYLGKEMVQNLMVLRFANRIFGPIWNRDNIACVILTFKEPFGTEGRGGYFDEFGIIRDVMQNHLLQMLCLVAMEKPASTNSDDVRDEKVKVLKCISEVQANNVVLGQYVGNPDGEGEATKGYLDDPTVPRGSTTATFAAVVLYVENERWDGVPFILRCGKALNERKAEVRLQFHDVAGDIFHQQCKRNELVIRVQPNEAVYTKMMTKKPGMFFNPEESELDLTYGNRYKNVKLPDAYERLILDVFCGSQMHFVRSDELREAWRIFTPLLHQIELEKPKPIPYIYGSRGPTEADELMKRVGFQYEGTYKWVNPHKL
# Sequence of FAD-linked sulfhydryl oxidase ALR (P55789 whole entry): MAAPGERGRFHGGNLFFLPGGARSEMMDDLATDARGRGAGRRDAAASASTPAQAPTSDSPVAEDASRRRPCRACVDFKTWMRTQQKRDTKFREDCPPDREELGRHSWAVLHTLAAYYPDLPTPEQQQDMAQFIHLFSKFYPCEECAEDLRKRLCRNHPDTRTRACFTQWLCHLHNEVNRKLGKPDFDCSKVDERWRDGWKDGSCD
# Sequence of Phosphomannomutase 2 (O15305 whole entry): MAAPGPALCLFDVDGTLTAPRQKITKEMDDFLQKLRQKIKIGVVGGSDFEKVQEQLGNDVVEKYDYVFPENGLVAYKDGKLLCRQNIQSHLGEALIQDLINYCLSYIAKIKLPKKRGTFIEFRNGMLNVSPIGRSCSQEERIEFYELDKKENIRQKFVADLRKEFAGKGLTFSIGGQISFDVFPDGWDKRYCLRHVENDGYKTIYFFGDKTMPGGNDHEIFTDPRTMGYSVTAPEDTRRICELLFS
smiles,measurement,setting,value
CC1=C(C(=O)N2CCOCC2)C(c2ccccc2F)C2=C(O)CC(C)(C)CC2=N1 (stereo not drawn),AC50,CAAX prenyl protease 1,14.6 µM (active)
Cc1ccnc(NS(=O)(=O)c2ccc(NC(=O)c3ccc([N+](=O)[O-])s3)cc2)n1,EC50,[1],967 nM (active)
same,EC50,[2],> 60 µM (not active)
same,CC50,[3],10.2 µM (active)
same,CC50,[4],> 20 µM (active)
same,CC50,[5],> 20 µM (active)
same,IC50,cells,6.24 µM (active)
O=C(/C=C/c1ccco1)Nc1ccc2nn(-c3ccccc3)nc2c1,IC50,[6],> 100 µM (inactive)
same,IC50,[7],> 100 µM (not active)
same,EC50,[8],4.11 µM (active)
same,EC50,[9],4.53 µM (active)
same,IC50,[10],5.43 µM (active)
O=C(O)CCCNC(=O)c1cncc(Br)c1,IC50,[6],> 100 µM (inactive)
same,IC50,[7],> 100 µM (not active)
Cc1ccc(NC(=O)c2ccc(Cl)c(N3C(=O)C=CC3=O)c2)cc1,IC50,[11],48.8 µM (inactive)
same,AC50,[12],4.21 µM (active)
same,IC50,Beta-galactosidase,> 66.6 µM (inactive)
same,IC50,[13],37.7 µM (active)
same,AC50,[14],3.64 µM (active)
same,AC50,[15],1.6 µM (active)
same,AC50,[16],55.1 µM (active)
same,AC50,[17],9.79 µM (active)
same,AC50,[18],5.17 µM (active)
same,AC50,[19],1.93 µM (active)
COc1ccc(C)cc1NC(=O)C12CCC(C)(C(=O)O1)C2(C)C (stereo not drawn),EC50,"Troponin, cardiac muscle",> 71.5 µM (inactive)
Cc1cc(C2=NN=C(Nc3ccc(S(=O)(=O)N4CCOCC4)cc3)SC2)c(C)n1CC1CCCO1 (stereo not drawn),EC50,Hexokinase HKDC1,31.2 µM (inactive)
same,EC50,Hexokinase-1,29.5 µM (inactive)
Sc1nnc(Nc2ccccc2Cl)s1,IC50,[20],> 50 µM (inactive)
same,IC50,Phosphomannomutase 2,> 100 µM (inactive)
same,IC50,[13],> 100 µM (inactive)
same,IC50,[21],54.8 µM (active)
CCn1c(Cn2nnc(-c3ccccc3)n2)nnc1SCc1ccc(Cl)c(Cl)c1,IC50,[22],2.8 µM (active)
Nc1nc2ccc(S(=O)(=O)N3CCCCC3)cc2s1,IC50,[22],13.9 µM (inactive)
same,IC50,Large T antigen,8.51 µM (active)
same,AC50,[23],3.3 µM (active)
same,IC50,[24],> 66 µM (inactive)
same,IC50,[25],> 66 µM (inactive)
COc1cccc(-c2nnc(NC(=O)c3ccc(S(=O)(=O)N(CC(C)C)CC(C)C)cc3)o2)c1,CC50,[3],0.996 µM (active)
same,CC50,[4],5.3 µM (active)
same,CC50,[5],2.37 µM (active)
same,IC50,cells,16.3 µM (active)
same,AC50,HEK293,8.51 µM (active)
same,IC50,H9c2,> 79 µM (inactive)
